Molecular target: T1, human vasopressin V2 receptor subtype (Homo sapiens, UniProt P30518)
T1 construct: host or cells: CHO cells (pZeoSV vector)
Assay: Vasopressin binding in Chinese Hamster Ovary cell membranes expressing human vasopressin V2 subtype receptors
Conditions: 100 nM, CHO cell membranes, [3H]arginine vasopressin, values without parentheses
In short: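 Radioligand displacement on membranes from CHO cells stably expressing human V2 receptor, 25 to 50 μg protein/well, in 50 mM Tris-HCl pH 7.4 with MgCl2, BSA and protease inhibitors. [^3H]arginine vasopressin (8 nM working solution) incubated 60 min at room temperature; bound label measured by filtration and scintillation counting.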

T1 sequence (P30518 whole entry): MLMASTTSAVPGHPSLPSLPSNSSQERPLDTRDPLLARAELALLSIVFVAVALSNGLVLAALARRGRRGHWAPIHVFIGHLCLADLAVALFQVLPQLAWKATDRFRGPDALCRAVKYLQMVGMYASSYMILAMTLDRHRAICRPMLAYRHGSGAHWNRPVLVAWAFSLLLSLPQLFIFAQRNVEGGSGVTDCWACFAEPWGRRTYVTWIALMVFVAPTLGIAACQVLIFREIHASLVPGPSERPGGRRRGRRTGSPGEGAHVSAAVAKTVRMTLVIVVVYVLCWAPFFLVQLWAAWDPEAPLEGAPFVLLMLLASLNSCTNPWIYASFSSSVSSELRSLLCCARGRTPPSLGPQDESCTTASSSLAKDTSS

| SMILES | inhibition at 0.1 µM [%] |
| --- | --- |
| COc1cccc(-c2cc(OC)c(C(=O)N3Cc4ccc(C(=O)N[C@@H](CCCCNC(=O)OC(C)(C)C)C(N)=O)n4Cc4ccccc43)cc2Cl)c1 [Example 302, tert-Butyl (5S)-6-amino-5-[({10-[(6-chloro-3,3′-dimethoxy[1,1′-biphenyl]-4-yl)carbonyl]-10,11-dihydro-5H-pyrrolo[2,1-c][1,4]benzodiazepin-3-yl}carbonyl)amino]-6-oxohexylcarbamate] | 17 |
| COc1cc(C(=O)N2Cc3ccc(C(=O)NCCC4CCCN4C)n3Cc3ccccc32)ccc1-n1c(C)ccc1C (centres unmarked) [Example 315, 10-[4-(2,5-Dimethyl-1H-pyrrol-1-yl)-3-methoxybenzoyl]-N-[2-(1-methyl-2-pyrrolidinyl)ethyl]-10,11-dihydro-5H-pyrrolo[2,1-c][1,4]benzodiazepine-3-carboxamide] | -4 |
| COc1ccccc1-c1ccc(C(=O)N2Cc3ccc(C(=O)N[C@@H]4CN5CCC4CC5)n3Cc3ccccc32)cc1OC [Example 300, N-[(3S)-1-Azabicyclo[2.2.2]oct-3-yl]-10-[(2,2′-dimethoxy[1,1′-biphenyl]-4-yl)carbonyl]-10,11-dihydro-5H-pyrrolo[2,1-c][1,4]benzodiazepine-3-carboxamide] | 19 |
| COc1cc(-c2ccccc2C)c(Cl)cc1C(=O)N1Cc2ccc(C(=O)N[C@@H]3CN4CCC3CC4)n2Cc2ccccc21 [Example 297, N-[(3S)-1-Azabicyclo[2.2.2]oct-3-yl]-10-[(6-chloro-3-methoxy-2′-methyl-[1,1′-biphenyl]-4-yl)carbonyl]-10,11-dihydro-5H-pyrrolo[2,1-c][1,4]benzodiazepine-3-carboxamide] | 13 |
| Cc1cc(C(=O)N2Cc3ccc(C(=O)n4ccnc4)n3Cc3ccccc32)ccc1-c1ccccc1C(F)(F)F [Example 294, 1H-Imidazol-1-yl(10-{[2-methyl-2′-(trifluoromethyl)[1,1′-biphenyl]-4-yl]carbonyl}-10,11-dihydro-5H-pyrrolo[2,1-c][1,4]benzodiazepin-3-yl)methanone] | -2 |
| O=C(c1ccc(-c2ccccc2)nc1)N1Cc2cccn2Cc2ccccc21 [Example 29, (6-Phenyl-pyridin-3-yl)-[10,11-dihydro-5H-pyrrolo[2,1-c][1,4]benzodiazepin-10-yl]methanone] | 24 |
| COc1cc(C(=O)N2Cc3ccc(C(=O)NCCCN(C)C)n3Cc3ccccc32)ccc1-c1ccccc1C [Example 77, N-[3-(Dimethylamino)propyl]-10-[(2-methoxy-2′-methyl[1,1′-biphenyl]-4-yl)carbonyl]-10,11-dihydro-5H-pyrrolo[2,1-c][1,4]benzodiazepine-3-carboxamide] | 28 |
| Cc1cc(C(=O)N2Cc3cccn3Cc3ncccc32)ccc1-c1ccccc1C(F)(F)F [Example 323F, (2-Methyl-2′-trifluoromethyl-[1,1′-biphenyl]-4-yl)-(4H,10H-3a,5,9-triaza-benzo[f]azulen-9-yl)-methanone] | 5 |
| Cc1cc(C(=O)N2Cc3ccc(C(=O)N[C@H]4CN5CCC4CC5)n3Cc3ccccc32)ccc1-c1ccccc1C(F)(F)F [Example 301, N-[(3R)-1-Azabicyclo[2.2.2]oct-3-yl]-10-{[2-methyl-2′-(trifluoromethyl)[1,1′-biphenyl]-4-yl]carbonyl}-10,11-dihydro-5H-pyrrolo[2,1-c][1,4]benzodiazepine-3-carboxamide] | 9 |
| COc1ccccc1-c1ccc(C(=O)N2Cc3ccc(C(=O)n4ccnc4)n3Cc3ccccc32)cc1OC [Example 293, {10-[(2,2′-Dimethoxy[1,1′-biphenyl]-4-yl)carbonyl]-10,11-dihydro-5H-pyrrolo[2,1-c][1,4]benzodiazepin-3-yl}(1H-imidazol-1-yl)methanone] | 3 |
| COc1cc(C(=O)N2Cc3ccc(C(=O)NCCN4CCCCC4)n3Cc3ccccc32)ccc1-n1c(C)ccc1C [Example 314, 10-[4-(2,5-Dimethyl-1H-pyrrol-1-yl)-3-methoxybenzoyl]-N-[2-(1-piperidinyl)ethyl]-10,11-dihydro-5H-pyrrolo[2,1-c][1,4]benzodiazepine-3-carboxamide] | 7 |
| COc1ccccc1-c1ccc(C(=O)N2Cc3ccc(C(=O)N[C@@H]4CN5CCC4CC5)n3Cc3ccccc32)cc1C [Example 295, N-[(3S)-1-Azabicyclo[2.2.2]oct-3-yl]-10-[(2′-methoxy-2-methyl[1,1′-biphenyl]-4-yl)carbonyl]-10,11-dihydro-5H-pyrrolo[2,1-c][1,4]benzodiazepine-3-carboxamide] | 22 |
| Cc1ccccc1-c1ccc(C(=O)N2Cc3ccc(C(=O)NCCCN(C)C)n3Cc3ccccc32)cc1 [Example 76, N-[3-(Dimethylamino)propyl]-10-[(2′-methyl[1,1′-biphenyl]-4-yl)carbonyl]-10,11-dihydro-5H-pyrrolo[2,1-c][1,4]benzodiazepine-3-carboxamide] | 17 |
| COc1cccc(-c2cc(OC)c(C(=O)N3Cc4ccc(C(=O)N[C@@H](Cc5c[nH]cn5)C(N)=O)n4Cc4ccccc43)cc2Cl)c1 [Example 287, N-[(1S)-2-Amino-1-(1H-imidazol-4-ylmethyl)-2-oxoethyl]-10-[(6-chloro-3,3′-dimethoxy[1,1′-biphenyl]-4-yl)carbonyl]-10,11-dihydro-5H-pyrrolo[2,1-c][1,4]benzodiazepine-3-carboxamide] | 26 |

Next, values leading:

| inhibition at 0.1 µM [%] | SMILES |
| --- | --- |
| 27 | COc1ccccc1-c1ccc(C(=O)N2Cc3ccc(C(=O)N4CCCN(C)CC4)n3Cc3ccccc32)cc1C [Example 62, {10-[(2′-Methoxy-2-methyl[1,1′-biphenyl]-4-yl)carbonyl]-10,11-dihydro-5H-pyrrolo[2,1-c][1,4]benzodiazepin-3-yl}(4-methyl-1,4-diazepan-1-yl)methanone] |
| -2 | COc1cc(C(=O)N2Cc3ccc(C(=O)N4CCN(CCN(C)C)CC4)n3Cc3ccccc32)ccc1-n1c(C)ccc1C [Example 316, {4-[2-(Dimethylamino)ethyl]-1-piperazinyl}{10-[4-(2,5-dimethyl-1H-pyrrol-1-yl)-3-methoxybenzoyl]-10,11-dihydro-5H-pyrrolo[2,1-c][1,4]benzodiazepin-3-yl}methanone] |
| 13 | COc1cc(C(=O)N2Cc3ccc(C(=O)N4CCN(C(C)C)CC4)n3Cc3ccccc32)ccc1-n1c(C)ccc1C [Example 319, {10-[4-(2,5-Dimethyl-1H-pyrrol-1-yl)-3-methoxybenzoyl]-10,11-dihydro-5H-pyrrolo[2,1-c][1,4]benzodiazepin-3-yl}(4-isopropyl-1-piperazinyl)methanone] |
| 9 | Cc1ccccc1-c1ccc(C(=O)N2Cc3ccc(C(=O)N4CCN(CCCN(C)C)CC4)n3Cc3ccccc32)cc1 [Example 249, {4-[3-(Dimethylamino)propyl]-1-piperazinyl}{10-[(2′-methyl[1,1′-biphenyl]-4-yl)carbonyl]-10,11-dihydro-5H-pyrrolo[2,1-c][1,4]benzodiazepin-3-yl}methanone] |
| 11 | COc1cccc(-c2ccc(C(=O)N3Cc4ccc(C(=O)N5CCN(C)CC5)n4Cc4ccccc43)cc2OC)c1 [Example 57, {10-[(2,3′-Dimethoxy[1,1′-biphenyl]-4-yl)carbonyl]-10,11-dihydro-5H-pyrrolo[2,1-c][1,4]benzodiazepin-3-yl}(4-methyl-1-piperazinyl)methanone] |
| 21 | COc1cccc(-c2cc(OC)c(C(=O)N3Cc4ccc(C(=O)N5CCN(CCCN(C)C)CC5)n4Cc4ccccc43)cc2Cl)c1 [Example 252, {10-[(6-Chloro-3,3′-dimethoxy[1,1′-biphenyl]-4-yl)carbonyl]-10,11-dihydro-5H-pyrrolo[2,1-c][1,4]benzodiazepin-3-yl}{4-[3-(dimethylamino)propyl]-1-piperazinyl}methanone] |
| 21 | CC(C)N1CCN(C(=O)c2ccc3n2Cc2ccccc2N(C(=O)c2ccc(-c4cccc5ccccc45)cc2Cl)C3)CC1 [Example 243, {10-[2-Chloro-4-(1-naphthyl)benzoyl]-10,11-dihydro-5H-pyrrolo[2,1-c][1,4]benzodiazepin-3-yl}(4-isopropyl-1-piperazinyl)methanone] |
| -10 | COc1cc(C(=O)N2Cc3ccc(C(=O)N4CCN(CCCN(C)C)CC4)n3Cc3ccccc32)ccc1-c1cccc2ccccc12 [Example 253, {4-[3-(Dimethylamino)propyl]-1-piperazinyl}{10-[3-methoxy-4-(1-naphthyl)benzoyl]-10,11-dihydro-5H-pyrrolo[2,1-c][1,4]benzodiazepin-3-yl}methanone] |
| 20 | COc1cc(C(=O)N2Cc3ccc(C(=O)N4CCCN(C)CC4)n3Cc3ccccc32)ccc1-c1ccccc1C [Example 66, {10-[(2-Methoxy-2′-methyl[1,1′-biphenyl]-4-yl)carbonyl]-10,11-dihydro-5H-pyrrolo[2,1-c][1,4]benzodiazepin-3-yl}(4-methyl-1,4-diazepan-1-yl)methanone] |
| -7 | COc1ccccc1-c1ccc(C(=O)N2Cc3ccc(C(=O)n4ccnc4)n3Cc3ccccc32)cc1C [Example 292, 1H-Imidazol-1-yl-{10-[(2′-methoxy-2-methyl[1,1′-biphenyl]-4-yl)carbonyl]-10,11-dihydro-5H-pyrrolo[2,1-c][1,4]benzodiazepin-3-yl}methanone] |
| 6 | Cc1ccccc1-c1ccc(C(=O)N2Cc3ccc(C(=O)N4CCCN(C)CC4)n3Cc3ccccc32)cc1 [Example 65, {10-[(2′-Methyl[1,1′-biphenyl]-4-yl)carbonyl]-10,11-dihydro-5H-pyrrolo[2,1-c][1,4]benzodiazepin-3-yl}(4-methyl-1,4-diazepan-1-yl)methanone] |
| -4 | COc1ccccc1-c1ccc(C(=O)N2Cc3ccc(C(=O)N4CCN(CCCN(C)C)CC4)n3Cc3ccccc32)cc1OC [Example 254, {10-[(2,2′-Dimethoxy[1,1′-biphenyl]-4-yl)carbonyl]-10,11-dihydro-5H-pyrrolo[2,1-c][1,4]benzodiazepin-3-yl}{4-[3-(dimethylamino)propyl]-1-piperazinyl}methanone] |

— patent US7109193B2, “Tricyclic diazepines tocolytic oxytocin receptor antagonists” (Wyeth, priority 2001, dated 2006)
